Reference: US7375088B2, “Polyene polyketides, processes for their production and their use as a pharmaceutical” (Thallion Pharmaceuticals Inc., priority 2003, dated 2008)
Values after ≈ are worked out from the molar mass of the structure shown. Like-named read-outs stand apart in the source and are kept apart here.

Experiments:
[1] = tested on: Candida glabrata LSPQ 0250; assay: MIC broth microdilution assay; details: Nakaseomyces glabratus
Description: (§6) Test compound preparation: The test article was prepared as 100× stock solutions in DMSO, with concentrations ranging from 3.2 mg/ml to 0.0625 mg/ml (a two-fold dilution series over 10 points). The first dilution (3.2 mg/ml) was prepared by resuspending 0.5 mg of each test article in 156.25 μl of DMSO. The stock is then serially diluted by two-fold increments to obtain the desired concentration range.
(§7) Inoculum preparation: For fungal strains, the inoculum was prepared as follows. From an overnight culture in Yeast Media broth, cell density was adjusted in 0.85% saline to 0.5 McFarland. This procedure yielded a stock suspension of about 5×10^6 cells/ml. Following thorough vortexing, a working suspension was prepared by diluting the stock 1:50 in RPMI 1640, and then further diluting it 1:20 with RPMI 1640 to obtain the 2× test inoculum (about 5×10^3 cells/ml). For filamentous fungi, the inoculum was prepared as follows. […]
(§8) 50 μl of the final cell dilution (yeast, filamentous fungi or bacteria) of each indicator strain was added to each corresponding well of the microplate containing 50 μl of diluted drug or media alone. […] MIC readings were determined at 24 and 48 hrs for the Candida and Aspergillus species, and at 48 and 72 hrs for Cryptococcus neoformans. MIC readout for each indicator was determined as the lowest concentration of test compound resulting in total absence of growth.

[2] = tested on: Candida lusitaniae ATCC 200953; assay: MIC broth microdilution assay; details: Clavispora lusitaniae
Description: as §6, §7, §8

[3] = tested on: 60 different human tumor cell lines; assay: NCI in vitro antiproliferative screen, 60 human tumor cell lines (SRB, GI50); type: cell-based
Description: (§1) In Vitro antipoliferative study of Compound 2a was performed by the National Cancer Institute (National Institutes of Health, Bethesda, Md., USA) against a panel of cancer cell lines in order to determine the concentrations needed to obtain a 50% inhibition of cell proliferation (IC50). The operation of this unique screen utilizes 60 different human tumor cell lines, representing leukemia, melanoma, and cancers of the lung, colon, brain, ovary, breast prostate and kidney. Compound 2(a) was provided as a lyophilized powder with an estimated purity of 90+%. The compound was stored at −20° C. until day of use.
(§2) The human tumor cell lines of the cancer-screening panel were grown in RPMI 1640 medium containing 5% fetal bovine serum and 2 mM L-glutamine. For a typical screening experiment, cells were inoculated into 96 well microtiter plates in 100 μl at plating densities ranging from 5000 to 40,000 cells/well depending on the doubling time of individual cell lines (Table 8). After cell inoculation, the microtiter plates were incubated at 37° C., under 5% CO2, 95% air and 100% relative humidity for 24 hours prior to addition of the experimental drugs.
(§3) After 24 hours, two plates of each cell line were fixed in situ with TCA, to represent a measurement of the cell population for each cell line at the time of drug addition (Tz). Compound 2(a) was solubilized in dimethyl sulfoxide at 400-fold the desired final maximum test concentration and stored frozen prior to use. At the time of drug addition, an aliquot of frozen concentrate was thawed and diluted to twice the desired final maximum test concentration with complete medium containing 50 μg/ml gentamicin. Additional four, serial dilutions were made to provide a total of five drug concentrations plus control. Aliquots of 100 μl of these different drug dilutions were added to the appropriate microtiter wells already containing 100 μl of medium, resulting in the required final drug concentrations (2.5×10^−5 M to 2.5×10^−9 M).
(§4) Following drug addition, the plates were incubated for an additional 48 hours at 37° C., 5% CO2, 95% air, and 100% relative humidity. For adherent cells, the assay was terminated by the addition of cold TCA. Cells were fixed in situ by the gentle addition of 50 μl of cold 50% (w/v) TCA (final concentration, 10% TCA) and incubation for 60 minutes at 4° C. The supernatant was discarded, and the plates were washed five times with tap water and air-dried. Sulforhodamine B (SRB) solution (100 μl) at 0.4% (w/v) in 1% acetic acid was added to each well, and plates were incubated for 10 minutes at room temperature. After staining, unbound dye was removed by washing five times with 1% acetic acid and the plates were air-dried. Bound stain was subsequently solubilized with 10 mM trizma base, and the absorbance was read on an automated plate reader at a wavelength of 515 nm. For suspension cells, the methodology was the same except that the assay was terminated by fixing settled cells at the bottom of the wells by gently adding 50 μl of 80% TCA (final concentration, 16% TCA).
(§5) The growth inhibitory power of compound 2(a) was measured by NCl utilizing the GI50 value, rather than the classical IC50 value. The GI50 value emphasizes the correction for the cell count at time zero and, using the seven adsorbance measurements [time zero (Tz), control growth (C), and the test growth in the presence of drug at each of the five concentration levels (Ti)], GI50 is calculated as [(Ti−Tz)/(C−Tz)×100=−50. which is the drug concentration resulting in a 50% reduction in the net protein increase (as measured by SRB staining) in control cells during the drug incubation.

[4] = tested on: Cryptococcus neoformans ATCC 32045; assay: MIC broth microdilution assay
Description: as §6, §7, §8

[5] = tested on: Aspergillus flavus ATCC 204304; assay: MIC broth microdilution assay
Description: as §6, §7, §8

[6] = tested on: HCC2998/colon carcinoma; assay: NCI in vitro antiproliferative screen (SRB, GI50); type: cell-based, human
Description: as §1, §2, §3, §4, §5

[7] = tested on: SN12C/renal carcinoma; assay: NCI in vitro antiproliferative screen (SRB, GI50); type: cell-based, human
Description: as §1, §2, §3, §4, §5

[8] = tested on: HOP92/non-small cell lung carcinoma; assay: NCI in vitro antiproliferative screen (SRB, GI50); type: cell-based, human
Description: as §1, §2, §3, §4, §5

[9] = tested on: Aspergillus fumigatus ATCC 204305; assay: MIC broth microdilution assay
Description: as §6, §7, §8

Structure (SMILES): CC(C=CCCC=CC=CC=CC=CC(=O)NC1=C(O)CCC1=O)C(O)C(C)C(O)C=CC=CC=CC=CC=CCC(OC1OC(C)C(O)C(O)C1O)C(C)C(=O)CC(O)CC(O)CC(O)C=CCC(O)CC(O)CC(O)CC(O)C=CCC(O)CC(O)CCCN (stereo not shown) [Compound 2(a), 56-Amino-15,17,33,35,37,41,43,45,47,51,53-undecahydroxy-14,16,30-trimethyl-31-oxo-29-(3,4,5-trihydroxy-6-methyl-tetrahydro-pyran-2-yloxy)-hexapentaconta-2,4,6,8,12,18,20,22,24,26,38,48-dodecaenoic acid (2-hydroxy-5-oxo-cyclopent-1-enyl)-amide]
- MIC ([1]; LSPQ0250, 24 h): 4 µg/mL (≈ 3.08 µM)
- MIC ([1]; LSPQ0250, 48 h): 8 µg/mL (≈ 6.17 µM)
- MIC ([2]; ATCC200953, 24 h): 4 µg/mL (≈ 3.08 µM)
- MIC ([2]; ATCC200953, 48 h): 4 µg/mL (≈ 3.08 µM)
- GI50 ([3]; 786-0, 48 h, 786-0, Renal cancer, read-out: GI50): 3.07 µM
- GI50 ([3]; 48 h, MDA-MB-, Breast cancer): 3.38 µM
- GI50 ([3]; 48 h, PC-3, Prostate cancer, read-out: GI50): 2.66 µM
- GI50 ([3]; 48 h, all cell lines of the NCI screening panel, 48 hours drug incubation): < 10 µM
- GI50 ([3]; A498, 48 h, A498, Renal cancer, read-out: GI50): 4.82 µM
- GI50 ([3]; A549, 48 h, A549/ATCC, Non-small cell lung cancer, read-out: GI50): 4.09 µM
- GI50 ([3]; ACHN, 48 h, ACHN, Renal cancer, read-out: GI50): 2.96 µM
- GI50 ([3]; BT-549, 48 h, BT-549, Breast cancer, read-out: GI50): 4.59 µM
- GI50 ([3]; CAKI-1, 48 h, CAKI-1, Renal cancer, read-out: GI50): 2.99 µM
- GI50 ([3]; COLO 205, 48 h, COLO 205, Colon cancer, read-out: GI50): 5 µM
- GI50 ([3]; DU-145, 48 h, DU-145, Prostate cancer, read-out: GI50): 3.78 µM
- GI50 ([3]; EKVX, 48 h, EKVX, Non-small cell lung cancer, read-out: GI50): 5.87 µM
- GI50 ([3]; HCT-15, 48 h, HCT-15, Colon cancer, read-out: GI50): 3.25 µM
- GI50 ([3]; HCT-116, 48 h, HCT-116, Colon cancer, read-out: GI50): 4.18 µM
- GI50 ([3]; HOP-62, 48 h, HOP-62, Non-small cell lung cancer, read-out: GI50): 6.83 µM
- GI50 ([3]; HT-29, 48 h, HT29, Colon cancer, read-out: GI50): 6.36 µM
- GI50 ([3]; IGROV-1, 48 h, IGROV1, Ovarian cancer, read-out: GI50): 2.95 µM
- GI50 ([3]; K562, 48 h, K-562, Leukemia, read-out: GI50): 9.18 µM
- GI50 ([3]; KM12, 48 h, KM12, Colon cancer, read-out: GI50): 2.76 µM
- GI50 ([3]; LOX IMVI, 48 h, LOX IMVI, Melanoma, read-out: GI50): 3.73 µM
- GI50 ([3]; M14, 48 h, M14, Melanoma, read-out: GI50): 4.15 µM
- GI50 ([3]; MCF7, 48 h, MCF7, Breast cancer, read-out: GI50): 4.22 µM
- GI50 ([3]; MDA-MB-435, 48 h, MDA-MB-435, Breast cancer, read-out: GI50): 3.26 µM
- GI50 ([3]; MOLT-4, 48 h, MOLT-4, Leukemia, read-out: GI50): 5.57 µM
- GI50 ([3]; Malme-3M, 48 h, MALME-3M, Melanoma, read-out: GI50): 2.4 µM
- GI50 ([3]; NCI-H23, 48 h, NCI-H23, Non-small cell lung cancer, read-out: GI50): 4.25 µM
- GI50 ([3]; NCI-H226, 48 h, NCI-H226, Non-small cell lung cancer, read-out: GI50): 3.1 µM
- GI50 ([3]; NCI-H322M, Non-small cell lung cancer, 48 h, read-out: GI50): 3.48 µM
- GI50 ([3]; NCI-H460, 48 h, NCI-H460, Non-small cell lung cancer, read-out: GI50): 3.83 µM
- GI50 ([3]; NCI-H522, 48 h, NCI-H522, Non-small cell lung cancer, read-out: GI50): 2.8 µM
- GI50 ([3]; NCI/ADR-RES, 48 h, NCI/ADR-RES, Breast cancer, read-out: GI50): 4.76 µM
- GI50 ([3]; OVCAR-3, 48 h, OVCAR-3, Ovarian cancer, read-out: GI50): 3.4 µM
- GI50 ([3]; OVCAR-4, 48 h, OVCAR-4, Ovarian cancer, read-out: GI50): 4.48 µM
- GI50 ([3]; OVCAR-5, 48 h, OVCAR-5, Ovarian cancer, read-out: GI50): 4 µM
- GI50 ([3]; OVCAR-8, 48 h, OVCAR-8, Ovarian cancer, read-out: GI50): 4.34 µM
- GI50 ([3]; RXF 393, 48 h, RXF 393, Renal cancer, read-out: GI50): 1.2 µM
- GI50 ([3]; SF-268, 48 h, SF-268, CNS cancer, read-out: GI50): 3.64 µM
- GI50 ([3]; SF-295, 48 h, SF-295, CNS cancer, read-out: GI50): 3.91 µM
- GI50 ([3]; SK-MEL-2, 48 h, SK-MEL-2, Melanoma, read-out: GI50): 4.34 µM
- GI50 ([3]; SK-MEL-5, 48 h, SK-MEL-5, Melanoma, read-out: GI50): 4.16 µM
- GI50 ([3]; SK-MEL-28, 48 h, SK-MEL-28, Melanoma, read-out: GI50): 6.75 µM
- GI50 ([3]; SK-OV-3, 48 h, SK-OV-3, Ovarian cancer, read-out: GI50): 7.94 µM
- GI50 ([3]; SNB-19, 48 h, SNB-19, CNS cancer, read-out: GI50): 5.58 µM
- GI50 ([3]; SNB-75, 48 h, SNB-75, CNS cancer, read-out: GI50): 3.87 µM
- GI50 ([3]; SW-620, 48 h, SW-620, Colon cancer, read-out: GI50): 5.35 µM
- GI50 ([3]; T47D, 48 h, T-47D, Breast cancer, read-out: GI50): 6 µM
- GI50 ([3]; TK-10, 48 h, TK-10, Renal cancer, read-out: GI50): 3.32 µM
- GI50 ([3]; U-251, 48 h, U251, CNS cancer, read-out: GI50): 3.65 µM
- GI50 ([3]; UACC-62, 48 h, UACC-62, Melanoma, read-out: GI50): 2.68 µM
- GI50 ([3]; UACC-257, 48 h, UACC-257, Melanoma, read-out: GI50): 3.74 µM
- GI50 ([3]; UO-31, 48 h, UO-31, Renal cancer, read-out: GI50): 3.65 µM
- MIC ([4]; ATCC32045, 48 h): 2 µg/mL (≈ 1.54 µM)
- MIC ([4]; ATCC32045, 72 h): 4 µg/mL (≈ 3.08 µM)
- MIC ([5]; ATCC204304, 24 h): 4 µg/mL (≈ 3.08 µM)
- MIC ([5]; ATCC204304, 48 h): 8 µg/mL (≈ 6.17 µM)
- GI50 level ([6]; HCC2998/colon carcinoma, 48 hours): nanomolar or picomolar level
- GI50 ([6]; Homo sapiens, HCC-2998, Colon cancer, 48 h): 0.0603 µM
- GI50 ([7]; Homo sapiens, SN12C, Renal cancer, 48 h): 0.138 µM
- GI50 level ([7]; SN12C/renal carcinoma, 48 hours): nanomolar or picomolar level
- GI50 level ([8]; HOP92/non-small cell lung carcinoma, 48 hours): nanomolar or picomolar level
- GI50 ([8]; Homo sapiens, HOP-92, Non-small cell lung cancer, 48 h): 0.0977 µM
- MIC ([9]; ATCC204305, 24 h): 16 µg/mL (≈ 12.3 µM)
- MIC ([9]; ATCC204305, 48 h): 16 µg/mL (≈ 12.3 µM)
